{
  "source": "patent US20120060243A1",
  "about": "“Herbicide-Resistant AHAS-Mutants and Methods of Use” (priority 2008, published 2012)",
  "type_in_all_cases": "in vivo, Brassica napus",
  "key": {"Bn WT 1": {"tested_on": "Bn WT 1", "assay": "Field trial crop phytotoxicity, Simcoe", "conditions": "18 Days After Treatment, line Bn WT 1; for Mean Percent Crop Phytotoxicity (% Crop Injury): field, 2-4 leaf stage", "source_text": "Hand-crossed hybrids were produced in the greenhouse between two IMI-tolerant spring Brassica napus parental lines: “BnCL131A1” (homozygous for the A genome IMI-tolerant mutation AHASL1A-A122(At)T-S653(At)N) and “PM1PM2” (homozygous for the A genome AHAS-inhibitor tolerant mutation AHASL1A-W574(At)L (PM2) plus the C genome AHAS-inhibitor tolerant mutation AHASL1C-S653(At)N(PM1)). The resulting heterozygous hand-crossed hybrid line, “PM1PM2/BnCL131A 1” (heterozygous for the stacked mutations: AHASL1A-A122(At)T-S653(At)N, AHASL1A-W574(At)L (PM2), AHASL1C-S653(At)N(PM1)) was field tested together with lines each containing only one AHAS-inhibitor tolerant mutation (homozygous or heterozygous) and several spring Brassica napus checks.\nThe three repetition trial was conducted in Simcoe, N. Dak., and used a randomized split block design. The trial was designed to measure the percent phytotoxicity (% crop injury) of the different entries under 5 different imidazolinone herbicide treatment rates. Plants were sprayed at the 2-4 leaf stage at a volume of 100 liters/ha. The imidazolinone herbicide rates used were as follows (Imazamox=BEYOND™ 120 g/I LC (BAS 72001H); NIS=INDUCE™ 90 (90% non-ionic surfactant; Helena Chemical Co., Collierville, Tenn.):\nCrop Injury Ratings were determined in the field by assessing each plot in the trial for the level of phytotoxicity (percent crop injury) on a scale from 0-100% at 18 days after treatment. Mean values for each entry across the three replications along with their statistical significance (ANOVA) are presented in Table 6 (Ho=homozygous; He=heterozygous). Each value presented in Table 6 is the mean of three replications.\nThe percent phytotoxicity (% crop injury) ratings were transposed into Herbicide Tolerance ratings by subtracting the percent crop injury rating (Table 6) for each line from 100% to obtain the percent herbicide tolerance (Table 7) (Ho=homozygous; He=heterozygous)."}, "[1]": {"tested_on": "BnCL131A1 (AHAS III A122T:S653N, double mutant)", "assay": "Foliar spray response of whole plants, FIG. 2", "conditions": "210 g ai/ha + 0.5% v/v Merge, 3-4 leaf stage, three weeks after treatment, line BnCL131A1", "description": "(§1) In addition, B. napus plants (3-4 leaf stage) containing the double mutant were analyzed for response to treatment with imazamox compared to wild type plants. Lines BN02 (wild-type) and BnCL131A1 (AHAS III A122T:S653N, double mutant) were treated with either 210 g ai/ha imazamox supplemented with 0.5% v/v Merge by foliar spray or left unsprayed as checks. FIG. 2 provides the results for plants BN02 (top row) and BnCL131A1 (bottom row)."}, "BN02 (wild-type)": {"tested_on": "BN02 (wild-type)", "assay": "Foliar spray response of whole plants, FIG. 2", "conditions": "210 g ai/ha + 0.5% v/v Merge, 3-4 leaf stage, three weeks after treatment, line BN02", "description": "as §1"}, "[2]": {"tested_on": "BnCL131A1.18 (AHAS III A122T S653N double mutant)", "assay": "Herbicide injury rating, Table 4", "conditions": "3-4 leaf stage, 2 weeks post spray, line BnCL131A1.18", "description": "(§2) Herbicide Injury Rating for Brassica napus Plants Treated with Imazamox. Plants for lines BN02 (wild type), two lines of BnCL131A1 (AHAS III A122T S653N double mutant; BnCL131A1.0 and BnCL131A1.18), PM1/PM2 (commercial two gene check: AHAS I S653N & AHAS III W574L) were grown […] Merge. Herbicide injury was evaluated 2 weeks post spray on 12 plants per line. The results are presented as mean injury±one standard error of the mean in Table 4 below. The results cover one planting and spray for all lines and the values for ±two standard error of the mean are also provided."}, "BN-02 (wild type)": {"tested_on": "BN-02 (wild type)", "assay": "Herbicide injury rating, Table 4", "conditions": "3-4 leaf stage, 2 weeks post spray, line BN-02", "description": "as §2"}, "[3]": {"tested_on": "PM1/PM2 (commercial two gene check: AHAS I S653N & AHAS III W574L)", "assay": "Herbicide injury rating, Table 4", "conditions": "3-4 leaf stage, 2 weeks post spray, line PM1/PM2", "description": "as §2"}, "[4]": {"tested_on": "BnCL131A1.0 (AHAS III A122T S653N double mutant)", "assay": "Herbicide injury rating, Table 4", "conditions": "3-4 leaf stage, 2 weeks post spray, line BnCL131A1.0", "description": "as §2"}},
  "data": [
    {"smiles": "COCc1cnc(C2=NC(C)(C(C)C)C(=O)N2)c(C(=O)O)c1", "note": "(stereo not drawn) [imazamox]", "values": [
      {"measurement": "Mean Percent Crop Phytotoxicity (% Crop Injury)", "setting": "Bn WT 1; 35 g ai/ha + 0.25% (v/v) NIS", "result": 85, "unit": "%"},
      {"measurement": "Mean Percent Herbicide Tolerance (100% minus percent crop injury)", "setting": "Bn WT 1; 35 g ai/ha", "result": 15.0, "unit": "%"},
      {"measurement": "Mean Percent Crop Phytotoxicity (% Crop Injury)", "setting": "Bn WT 1; 70 g ai/ha + 0.25% (v/v) NIS", "result": 96.67, "unit": "%"},
      {"measurement": "Mean Percent Herbicide Tolerance (100% minus percent crop injury)", "setting": "Bn WT 1; 70 g ai/ha", "result": 3.3, "unit": "%"},
      {"measurement": "Mean Percent Crop Phytotoxicity (% Crop Injury)", "setting": "Bn WT 1; 140 g ai/ha + 0.25% (v/v) NIS", "result": 100, "unit": "%"},
      {"measurement": "Mean Percent Herbicide Tolerance (100% minus percent crop injury)", "setting": "Bn WT 1; 140 g ai/ha", "result": 0.0, "unit": "%"},
      {"measurement": "Mean Percent Crop Phytotoxicity (% Crop Injury)", "setting": "Bn WT 1; 210 g ai/ha + 0.25% (v/v) NIS", "result": 98.33, "unit": "%"},
      {"measurement": "Mean Percent Herbicide Tolerance (100% minus percent crop injury)", "setting": "Bn WT 1; 210 g ai/ha", "result": 1.7, "unit": "%"},
      {"measurement": "Mean Percent Crop Phytotoxicity (% Crop Injury), Mean over rates", "setting": "Bn WT 1; mean over 0, 35, 70, 140, 210 g ai/ha (N 15)", "result": 76, "unit": "%"},
      {"measurement": "response to treatment with imazamox (tolerance)", "setting": "[1]", "result": "almost completely tolerant"},
      {"measurement": "response to treatment with imazamox (tolerance)", "setting": "BN02 (wild-type)", "result": "nearly non-tolerant"},
      {"measurement": "Herbicide injury rating, mean injury ± standard error of the mean", "setting": "[2]; 35 g ai/ha + 0.5% v/v Merge", "result": "0.64 ± 0.20"},
      {"measurement": "Herbicide injury rating, mean injury ± standard error of the mean", "setting": "[2]; 70 g ai/ha + 0.5% v/v Merge", "result": "0.91 ± 0.21"},
      {"measurement": "Herbicide injury rating, mean injury ± standard error of the mean", "setting": "[2]; 210 g ai/ha + 0.5% v/v Merge", "result": "1.89 ± 0.20"},
      {"measurement": "Herbicide injury rating, mean injury ± standard error of the mean", "setting": "[2]; 420 g ai/ha", "result": "2.27 ± 0.14"},
      {"measurement": "Herbicide injury rating, mean injury ± standard error of the mean", "setting": "BN-02 (wild type); 35 g ai/ha + 0.5% v/v Merge", "result": "8.92 ± 0.08"},
      {"measurement": "Herbicide injury rating, mean injury ± standard error of the mean", "setting": "BN-02 (wild type); 70 g ai/ha + 0.5% v/v Merge", "result": "9.00 ± 0.00"},
      {"measurement": "Herbicide injury rating, mean injury ± standard error of the mean", "setting": "BN-02 (wild type); 210 g ai/ha + 0.5% v/v Merge", "result": "9.00 ± 0.00"},
      {"measurement": "Herbicide injury rating, mean injury ± standard error of the mean", "setting": "BN-02 (wild type); 420 g ai/ha", "result": "9.00 ± 0.00"},
      {"measurement": "Herbicide injury rating, mean injury ± standard error of the mean", "setting": "[3]; 35 g ai/ha + 0.5% v/v Merge", "result": "0.50 ± 0.19"},
      {"measurement": "Herbicide injury rating, mean injury ± standard error of the mean", "setting": "[3]; 70 g ai/ha + 0.5% v/v Merge", "result": "1.83 ± 0.21"},
      {"measurement": "Herbicide injury rating, mean injury ± standard error of the mean", "setting": "[3]; 210 g ai/ha + 0.5% v/v Merge", "result": "2.00 ± 0.23"},
      {"measurement": "Herbicide injury rating, mean injury ± standard error of the mean", "setting": "[3]; 420 g ai/ha", "result": "3.83 ± 0.21"},
      {"measurement": "Herbicide injury rating, mean injury ± standard error of the mean", "setting": "[4]; 35 g ai/ha + 0.5% v/v Merge", "result": "0.90 ± 0.28"},
      {"measurement": "Herbicide injury rating, mean injury ± standard error of the mean", "setting": "[4]; 70 g ai/ha + 0.5% v/v Merge", "result": "1.20 ± 0.29"},
      {"measurement": "Herbicide injury rating, mean injury ± standard error of the mean", "setting": "[4]; 210 g ai/ha + 0.5% v/v Merge", "result": "1.45 ± 0.28"},
      {"measurement": "Herbicide injury rating, mean injury ± standard error of the mean", "setting": "[4]; 420 g ai/ha", "result": "3.20 ± 0.20"}
    ]}
  ]
}
